From patent publication US20250228239A1, “MOLECULES HAVING PESTICIDAL UTILITY, AND INTERMEDIATES, COMPOSITIONS, AND PROCESSES, RELATED THERETO” (priority 2024, published 2025)

How the values were obtained:
Type in all cases: in vivo
[1] = test system: Cabbage Looper (Trichoplusia ni, TRIPNI); assay: Bioassays on Cabbage Looper (CL), 128-well diet tray assay; details: Trichoplusia ni; Cabbage Looper, Table ABC / ABC-DP rating; read-out: CL rating
Procedure, shortened: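 Percent mortality, averaged across eight replicate wells, after second-instar larvae (1–5 per well) fed for five to seven days on diet dosed at 50 μg/cm^2. Compound was applied in acetone-water 90:10 and dried; trays kept vented at 25° C under 14:10 photoperiod.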

[2] = test system: Beet Armyworm (Spodoptera exigua, LAPHEG); assay: Bioassays on Beet Armyworm (BAW), 128-well diet tray assay; details: Spodoptera exigua; Beet Armyworm, Table ABC / ABC-DP rating; read-out: BAW rating
Procedure, shortened: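 One to five second-instar larvae per well on artificial diet surface-treated with 50 μg/cm^2 test molecule (applied in 90:10 acetone-water, dried), eight wells per compound. Trays held vented at 25° C., 14:10 light-dark for five to seven days; percent mortality averaged over the eight wells.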

[3] = test system: Yellow Fever Mosquito (Aedes aegypti, AEDSAE); details: Yellow Fever Mosquito, Table ABC / ABC-DP rating
Procedure, shortened: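 Larvae ~1 day old, in liver powder/water; compound from 4000 ppm DMSO stock diluted with water/acetone (90:10); 6 reps; lidded, RT, 3 d; mortality scored per well, rated.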

Structure (SMILES): O=C(CCC(F)(C(F)(F)F)C(F)(F)F)Nc1c(F)ccc(NC(=O)c2cc(NC(=O)[C@H]3[C@H](c4ccc(F)c(C(F)(F)F)c4)C3(Cl)Cl)ccc2Cl)c1F [F1829, 2-Chloro-5-((1R,3R)-2,2-dichloro-3-(4-fluoro-3-(trifluoromethyl)phenyl)cyclopropane-1-carboxamido)-N-(2,4-difluoro-3-(4,5,5,5-tetrafluoro-4-(trifluoromethyl)pentanamido)phenyl)benzamide]
- pest or weed control at 50 µg/cm2 [1]: 50 to 100%
- pest or weed control at 50 µg/cm2 [2]: 50 to 100%
- YFM rating [3]: A (80–100)

Structure (SMILES): O=C(CCCC(F)(F)F)Nc1c(F)ccc(NC(=O)c2cc(NC(=O)[C@H]3[C@H](c4ccc(F)c(C(F)(F)F)c4)C3(Cl)Cl)ccc2Cl)c1F [F1830, 2-Chloro-5-((1R,3R)-2,2-dichloro-3-(4-fluoro-3-(trifluoromethyl)phenyl)cyclopropane-1-carboxamido)-N-(2,4-difluoro-3-(5,5,5-trifluoropentanamido)phenyl)benzamide]
- pest or weed control at 50 µg/cm2 [1]: 50 to 100%
- pest or weed control at 50 µg/cm2 [2]: 50 to 100%
- YFM rating [3]: A (80–100)

Structure (SMILES): O=C(Nc1ccc(F)c(NC(=O)C(Br)CC(F)(F)F)c1F)c1cc(NC(=O)[C@H]2[C@H](c3ccc(F)c(C(F)(F)F)c3)C2(Cl)Cl)ccc1Cl (stereo partly drawn) [F1831, N-(3-(2-Bromo-4,4,4-trifluorobutanamido)-2,4-difluorophenyl)-2-chloro-5-((1R,3R)-2,2-dichloro-3-(4-fluoro-3-(trifluoromethyl)phenyl)cyclopropane-1-carboxamido)benzamide]
- pest or weed control at 50 µg/cm2 [1]: 50 to 100%
- pest or weed control at 50 µg/cm2 [2]: 50 to 100%
- YFM rating [3]: A (80–100)

Structure (SMILES): O=C(CC1(C(F)(F)F)CC1)Nc1c(F)ccc(NC(=O)c2cc(NC(=O)[C@H]3[C@H](c4ccc(F)c(C(F)(F)F)c4)C3(Cl)Cl)ccc2Cl)c1F [F1836, 2-Chloro-5-((1R,3R)-2,2-dichloro-3-(4-fluoro-3-(trifluoromethyl)phenyl)cyclopropane-1-carboxamido)-N-(2,4-difluoro-3-(2-(1-(trifluoromethyl)cyclopropyl)acetamido)phenyl)benzamide]
- pest or weed control at 50 µg/cm2 [1]: 50 to 100%
- pest or weed control at 50 µg/cm2 [2]: 50 to 100%
- YFM rating [3]: A (80–100)

Structure (SMILES): CCCN(C(=O)CC#N)c1c(F)ccc(NC(=O)c2cc(NC(=O)[C@H]3[C@H](c4ccc(F)c(C(F)(F)F)c4)C3(Cl)Cl)ccc2Cl)c1F [F1841, 2-Chloro-N-(3-(2-cyano-N-propylacetamido)-2,4-difluorophenyl)-5-((1R,3R)-2,2-dichloro-3-(4-fluoro-3-(trifluoromethyl)phenyl)cyclopropane-1-carboxamido)benzamide]
- pest or weed control at 50 µg/cm2 [1]: 50 to 100%
- pest or weed control at 50 µg/cm2 [2]: 50 to 100%
- YFM rating [3]: A (80–100)

Structure (SMILES): CCCN(C(=O)C(C)OCC)c1c(F)ccc(NC(=O)c2cc(NC(=O)[C@H]3[C@H](c4ccc(F)c(C(F)(F)F)c4)C3(Cl)Cl)ccc2Cl)c1F (stereo partly drawn) [F1842, 2-Chloro-5-((1R,3R)-2,2-dichloro-3-(4-fluoro-3-(trifluoromethyl)phenyl)cyclopropane-1-carboxamido)-N-(3-(2-ethoxy-N-propylpropanamido)-2,4-difluorophenyl)benzamide]
- pest or weed control at 50 µg/cm2 [1]: 50 to 100%
- pest or weed control at 50 µg/cm2 [2]: 50 to 100%
- YFM rating [3]: A (80–100)

Structure (SMILES): CC(F)(F)CCC(=O)Nc1c(F)ccc(NC(=O)c2cc(NC(=O)[C@H]3[C@H](c4ccc(F)c(C(F)(F)F)c4)C3(Cl)Cl)ccc2Cl)c1F [F1843, 2-Chloro-5-((1R,3R)-2,2-dichloro-3-(4-fluoro-3-(trifluoromethyl)phenyl)cyclopropane-1-carboxamido)-N-(3-(4,4-difluoropentanamido)-2,4-difluorophenyl)benzamide]
- pest or weed control at 50 µg/cm2 [1]: 50 to 100%
- pest or weed control at 50 µg/cm2 [2]: 50 to 100%
- YFM rating [3]: A (80–100)
